{"source": "patent US8993558B2", "about": "“Compositions comprising a calcium channel blocker or a calmodulin blocker for use in the removal of hyperplastic skin lesions” (priority 2008, dated 2015)", "key": {"[1]": {"tested_on": "outwardly-rectifying chloride channel", "settings": "50 microM; cited from earlier work"}, "[2]": {"tested_on": "P-glycoprotein", "settings": "hepatocyte canalicular membrane; cited from earlier work"}, "[3]": {"tested_on": "keloid", "assay": "Topical treatment of keloids in patients", "assay_type": "in vivo, human", "settings": "for keloid appearance: Example 17: 100 mg/ml ointment, keloid over mastoid process (Felodipine right, Diltiazem left); for keloid relapse: Example 17: follow up at 6 and 9 months", "procedure": "A person had keloids that had formed over several areas of the donor site scar from a previous hair transplant several years ago over the occipital area of the scalp from mastoid process to mastoid process. The keloids over the mastoid process on right side were initially treated with Felodipine 100 mg/ml ointment. The patient had been given instructions to apply the Felodipine 100 mg/ml ointment several times per day to the right side only and the patient was seen weekly in follow up."}, "[4]": {"tested_on": "keloid", "assay": "Topical treatment of keloids in patients", "assay_type": "in vivo, human", "settings": "Example 17: applied for two weeks twice daily to the donor surgical sites"}, "[5]": {"tested_on": "callouses", "assay": "Topical treatment of callouses in patients", "assay_type": "in vivo, human", "procedure": "A person had thick painful callouses over the lateral aspect of the 1st metatarsal-phallangeal joint on both feet. A mixture of Diltiazem dissolved at a concentration of 100 mg/ml in an ointment was given to the patient with instructions to apply the ointment 2-3 times per day in small amounts directly to only the callous locate on the 1st metatarsal-phallangeal joint of the left foot, and specifically not to use the ointment on the right foot.\nA recreational tennis player had bilateral thickened calluses over the right and left 5th distal metatarsal head of both feet. These callouses were causing their significant pain and disability when they played tennis. The patient was treated with Trifluoperazine and Felodipine impregnated bandages.\nInitially a water-proof bandage on which the mixture of Trifluoperazine 30 mg/ml Gel was applied to the adsorbent pad of the bandage with the pad being sized to cover the thickest area of the callous over the was right 5th distal metatarsal head. The pad of the waterproof bandage was applied to the callous and patient was instructed to replace the bandage 1-2 times per day with a new Trifluoperazine impregnated bandage after each shower/bath.\nThe patient was then given a one month supply of water-proof bandages on which the mixture of Felodipine 100 mg/ml ointment had been applied to the adsorbent pad of the bandage with the pad being sized to cover the thickest area of the callous over the was on the left 5th distal metatarsal head. The pad of the waterproof bandage was applied to the callous and patient was instructed to replaced the bandage 1-2 times per day with a new Felodipine impregnated bandage after each shower/bath."}, "[6]": {"tested_on": "psoriatic plaques", "assay": "Topical treatment of psoriatic plaques", "assay_type": "in vivo, human"}, "[7]": {"tested_on": "genital warts", "assay": "Topical treatment of genital (veneral) warts in patients", "assay_type": "in vivo, human", "procedure": "(§1) A person applied 0.1 ml of Trifluoperazine Topical Gel 30 mg/ml twice daily topically to several genital warts and a skin tag in the right axillary area.\nA person applied 0.1 ml of Diltiazem supplied in 3 ml syringes with removable caps dissolved at a concentration of 100 mg/ml in an ointment twice daily topically to several genital warts."}, "[8]": {"tested_on": "skin tag", "assay": "Treatment of skin tags in patients (injection or topical)", "assay_type": "in vivo, human", "procedure": "A person had multiple skin tags around their neck where they wore a gold necklace. A mixture of Diltiazem dissolved at a concentration of 100 mg/ml in an ointment was given to the patient with instructions to apply the ointment 1-2 times per day in small amounts directly to the skin tags.\nas §1"}, "[9]": {"tested_on": "plantar wart", "assay": "Topical treatment of plantar warts in patients", "procedure": "The warts were 2-5 mm in diameter. The patient was instructed to apply the cream 2-3 times per day to the three plantar warts, Patient used the medication regularly for approximately 4 weeks.\nA mixture of Diltiazem dissolved at a concentration of 100 mg/ml in an ointment was applied in small amounts directly to a single small 3 mm diameter plantar wart on sole under the 1st metatarsal-phallangeal joint on the left foot of a person. The patient applied the cream to the gauze pad of a bandage and then taped the bandage over the sole of the foot so that the Diltiazem 100 mg/ml ointment was in contact with the wart. The bandage was replaced daily after showering and this was continued for six weeks.\nA person applied 0.1 ml of Trifluoperazine Topical Gel 30 mg/ml twice daily topically to a approximately […] plantar wart that was large enough to make walking painful."}, "[10]": {"tested_on": "corn", "settings": "person"}, "[11]": {"settings": "Example 18: Topical Gel 30 mg/ml, four weeks of use, follow up a month later"}, "[12]": {"settings": "Example 13: 0.1 ml Topical Gel 30 mg/ml twice daily, three weeks"}}, "note": "Counter-ions that a name gives are not always drawn."}
{"compound": "CC[C@]1(O)C[C@@H]2CN(CCc3c([nH]c4ccccc34)[C@@](C(=O)OC)(c3cc4c(cc3OC)N(C)[C@H]3[C@@](O)(C(=O)OC)[C@H](OC(C)=O)[C@]5(CC)C=CCN6CC[C@]43[C@@H]65)C2)C1", "note": "[vinblastine]", "values": [{"measurement": "block of outwardly-rectifying chloride channel", "setting": "[1]", "result": "blocked"}]}
{"compound": "COc1cc2c(c(OC)c1OC)-c1ccc(OC)c(=O)cc1[C@@H](NC(C)=O)CC2", "note": "[colchicine]", "values": [{"measurement": "block of outwardly-rectifying chloride channel", "setting": "[1]", "result": "blocked"}]}
{"compound": "COc1cccc2c1C(=O)c1c(O)c3c(c(O)c1C2=O)C[C@@](O)(C(C)=O)C[C@@H]3O[C@H]1C[C@H](N)[C@H](O)[C@H](C)O1", "note": "[daunorubicin]", "values": [{"measurement": "block of outwardly-rectifying chloride channel", "setting": "[1]", "result": "blocked"}, {"measurement": "transport of permanently charged amphiphilic cations", "setting": "[2]", "result": "inhibited"}]}
{"compound": "CCOC(=O)C1=C(C)NC(C)=C(C(=O)OC)C1c1cccc(Cl)c1Cl", "note": "(stereo not drawn) [Felodipine, Ethyl methyl 4-(2,3-dichlorophenyl)-1,4-dihydro-2,6-dimethylpyridine-3,5-dicarboxylate]", "values": [{"measurement": "keloid appearance", "setting": "[3]; person, after 1 week", "result": "noticeable softening"}, {"measurement": "keloid appearance", "setting": "[3]; after 2 weeks", "result": "noticeable flattening and continued softening"}, {"measurement": "keloid appearance", "setting": "[3]; by six weeks", "result": "flattened to the level of the adjoining skin"}, {"measurement": "keloid relapse", "setting": "[3]", "result": "no relapse of the initial cosmetic improvement"}, {"measurement": "new keloid formation at FUE graft donor sites", "setting": "[4]", "result": "no new keloid formation"}, {"measurement": "pain when running and playing tennis", "setting": "[5]; Example 14: 100 mg/ml ointment impregnated bandage 1-2 times per day, left foot, after 3 weeks", "result": "pain free on both sides"}, {"measurement": "psoriatic plaque clearing", "setting": "[6]; Example 11: Topical ointment 100 mg/ml, left hand and wrist", "result": "significant clearing"}]}
{"compound": "CN1CCN(CCCN2c3ccccc3Sc3ccc(C(F)(F)F)cc32)CC1.Cl.Cl", "note": "[Trifluoperazine, 10-[3-(4-Methylpiperazin-1-yl)propyl]-2-trifluoromethyl-phenothiazine dihydrochloride]", "values": [{"measurement": "callous softness and thickness", "setting": "[5]; Example 14: 30 mg/ml Gel impregnated bandage 1-2 times per day, right foot, person, within one week", "result": "a softening and a reduction in the thickness of the callous"}, {"measurement": "pain or disability", "setting": "[5]; Example 14: 30 mg/ml Gel impregnated bandage, right foot (untreated left side still painful), after two weeks", "result": "no longer having any pain or disability"}, {"measurement": "callous thickness", "setting": "[5]; Example 14: 30 mg/ml Gel impregnated bandage, right foot, after two weeks", "result": "had thinned"}, {"measurement": "pain while playing tennis", "setting": "[5]; Example 14: 30 mg/ml Gel impregnated bandage, right foot, within one week", "result": "reduced pain while playing tennis"}, {"measurement": "genital wart clearing", "setting": "[7]; Example 18: 0.1 ml Topical Gel 30 mg/ml twice daily, person, three weeks", "result": "significant clearing"}, {"measurement": "genital wart clearing", "setting": "[7]; [11]", "result": "complete clearing"}, {"measurement": "skin tag clearing", "setting": "[8]; Example 18: 0.1 ml Topical Gel 30 mg/ml twice daily, right axillary area, three weeks", "result": "significant clearing"}, {"measurement": "skin tag clearing", "setting": "[8]; [11]", "result": "complete clearing"}, {"measurement": "plantar wart clearing", "setting": "[9]; Example 13: 0.1 ml Topical Gel 30 mg/ml twice daily, person, three weeks", "result": "significant clearing"}, {"measurement": "irritation or erythema around the lesion", "setting": "[9]; [12]", "result": "no irritation or erythema"}, {"measurement": "pain on walking and weight bearing", "setting": "[9]; [12]", "result": "weight bearing without pain"}, {"measurement": "plantar wart outcome", "setting": "[9]; Example 13: Topical Gel 30 mg/ml, stopped for the past two weeks, six weeks follow up", "result": "the wart was no longer visible"}, {"measurement": "plantar wart recurrence", "setting": "[9]; Example 13: gel not used for over 3 months, seen at 4 months", "result": "no recurrence of the wart"}]}
{"compound": "C=C[C@H]1C[N@@]2CC[C@H]1C[C@@H]2[C@@H](O)c1ccnc2ccc(OC)cc12", "note": "[quinidine]", "values": [{"measurement": "transport of permanently charged amphiphilic cations", "setting": "[2]", "result": "inhibited"}]}
{"compound": "COc1ccc([C@@H]2Sc3ccccc3N(CCN(C)C)C(=O)[C@@H]2OC(C)=O)cc1", "note": "[Diltiazem, (+)-cis-3-Acetoxy-5-(2-dimethylaminoethyl)-2,3-dihydro-2-(4-methoxyphenyl)-1,5-benzothiazapin-4(5H)-one hydrochloride]", "values": [{"measurement": "keloid appearance", "setting": "[3]; person, after 1 week", "result": "noticeable softening"}, {"measurement": "keloid appearance", "setting": "[3]; after 2 weeks", "result": "noticeable flattening and continued softening"}, {"measurement": "keloid appearance", "setting": "[3]; by six weeks", "result": "flattened to the level of the adjoining skin"}, {"measurement": "keloid relapse", "setting": "[3]", "result": "no relapse of the initial cosmetic improvement"}, {"measurement": "new keloid formation at FUE graft donor sites", "setting": "[4]", "result": "no new keloid formation"}, {"measurement": "callous thickness", "setting": "[5]; Example 6: 100 mg/ml ointment 2-3 times per day, left foot only (right foot control unchanged), person, three weeks", "result": "dramatic reduction in the thickness of the callous"}, {"measurement": "pain associated with wearing shoes", "setting": "[10]; Example 7: 100 mg/ml ointment 2-3 times per day, one month", "result": "significant reduction in pain"}, {"measurement": "corn thickness", "setting": "[10]; Example 7: 100 mg/ml ointment 2-3 times per day, second toe, one month", "result": "noticeable reduction in the thickness of the corn"}, {"measurement": "corn outcome", "setting": "[10]; Example 7: 100 mg/ml ointment off and on, after 6 months", "result": "the corn had dissappeared"}, {"measurement": "psoriatic plaque clearing", "setting": "[6]; Example 11: 100 mg/ml ointment, left leg", "result": "significant clearing"}, {"measurement": "genital wart clearing", "setting": "[7]; Example 19: 100 mg/ml ointment, follow up at 5 weeks", "result": "complete clearing of the genital warts"}, {"measurement": "genital wart clearing", "setting": "[7]; Example 19: 0.1 ml of 100 mg/ml ointment twice daily, person, three weeks", "result": "significant clearing"}, {"measurement": "skin tags remaining", "setting": "[8]; Example 9: 100 mg/ml ointment 1-2 times per day, multiple neck skin tags, person, one month", "result": "only a few small skin tags remaining"}, {"measurement": "skin tag outcome", "setting": "[8]; Example 9: 100 mg/ml ointment off and on, person, after 3 months", "result": "completely cleared"}, {"measurement": "plantar wart size", "setting": "[9]; Example 5: 100 mg/ml ointment on bandage daily, 3 mm wart, person, after about two weeks", "result": "dramatically shrunk in size"}, {"measurement": "plantar wart outcome", "setting": "[9]; Example 5: 100 mg/ml ointment on bandage daily, person, six weeks", "result": "not detected"}, {"measurement": "plantar wart recurrence", "setting": "[9]; Example 5: person, reassessed after 3 months", "result": "no evidence of recurrence of the plantar wart"}]}
